Results from paper PMC3646888 (PLoS ONE, 2013).
pIC50: −log10 of the molar value. “Also recorded” adds a separate entry of the source.

Tests used:
Assay type in all cases: in vitro ADME
[1] = target: T1, CYP1A2h (Homo sapiens, UniProt P05177); assay: Fluorescence-based CYP assay, recombinant CYP1A2h, substrate CEC
T1 sequence (P05177 1-516): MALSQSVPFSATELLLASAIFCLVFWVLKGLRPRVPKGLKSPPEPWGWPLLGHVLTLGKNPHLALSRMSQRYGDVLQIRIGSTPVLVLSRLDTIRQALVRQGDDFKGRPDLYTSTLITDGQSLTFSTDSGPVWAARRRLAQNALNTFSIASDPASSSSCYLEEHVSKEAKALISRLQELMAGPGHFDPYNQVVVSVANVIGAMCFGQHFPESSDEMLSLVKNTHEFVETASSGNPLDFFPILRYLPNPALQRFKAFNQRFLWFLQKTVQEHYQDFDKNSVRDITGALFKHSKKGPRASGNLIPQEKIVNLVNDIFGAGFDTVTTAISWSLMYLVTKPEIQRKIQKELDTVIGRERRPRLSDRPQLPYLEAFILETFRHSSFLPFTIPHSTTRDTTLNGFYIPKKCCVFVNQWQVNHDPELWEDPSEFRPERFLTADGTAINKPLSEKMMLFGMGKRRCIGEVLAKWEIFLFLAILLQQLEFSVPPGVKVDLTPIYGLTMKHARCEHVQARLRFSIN
Experimental: (§1) These assays were performed by methods similar to those described by VanAlstine and Hough, Stresser et al., Wulff et al., Henderson et al., and Crespi et al., with minor modifications. All incubations were performed in a final volume of 200 µL of 50 mM potassium phosphate buffer at pH 7.4 containing 1% acetonitrile. CYP inhibitor studies were performed according to the parameters of Table 1. Substrate concentrations were chosen to be near known Km values. As described in the references cited, two different NADPH regenerating systems were used depending on the substrates used (Table 1). […] Samples were pre-incubated at 37°C for the designated times, and the reactions were initiated with the addition of a substrate and enzyme mixtures (Table 1). […] For the assays utilizing the “high” regenerating system, enzyme reactions were terminated at the designated time by the addition of 75 µL of 2N NaOH, followed by a 2 h post-incubation at 37°C. Product formation was then measured at the designated wavelengths (Table 1). For the “low” regenerating system assays, blanks and standards were prepared in 0.1 mL buffer without the regenerating system. For the “high” regenerating system assays, blanks and standards containing 0.1 mL of buffer received 75 µL of 2N NaOH following pre-incubation.

[2] = target: T2, CYP3A4 (Homo sapiens, UniProt P08684); assay: Fluorescence-based CYP3A4 assay with DBF as substrate
Experimental: as §1

[3] = target: T2, CYP3A4; assay: CYP3A4 assay with LVS as substrate (LC-MS/MS); conditions: for IC50 at 20 min: human; for pIC50: substrate LVS 10 µM
Experimental: CYP3A4-containing Supersomes (2 pmol) were incubated with LVS (10 µM) in a 200 µl reaction mixture containing 0.1 M potassium phosphate buffer, pH 7.4, 1.0 mM NADPH, and 3 mM MgCl2 for 20 min at 37°C. The reaction was initiated by the addition of NADPH, and terminated by the addition of 400 µL of acetonitrile to the reaction mixture. Samples were extracted and analyzed for the two major LVS metabolites 6′β-hydroxy LVS and 6′-exomethylene LVS by LC-MS-MS exactly as described.

[4] = target: T3, CYP19A1h (Homo sapiens, UniProt P11511); assay: Fluorescence-based CYP assay, recombinant CYP19A1h, substrate DBF
T3 sequence (P11511 1-503): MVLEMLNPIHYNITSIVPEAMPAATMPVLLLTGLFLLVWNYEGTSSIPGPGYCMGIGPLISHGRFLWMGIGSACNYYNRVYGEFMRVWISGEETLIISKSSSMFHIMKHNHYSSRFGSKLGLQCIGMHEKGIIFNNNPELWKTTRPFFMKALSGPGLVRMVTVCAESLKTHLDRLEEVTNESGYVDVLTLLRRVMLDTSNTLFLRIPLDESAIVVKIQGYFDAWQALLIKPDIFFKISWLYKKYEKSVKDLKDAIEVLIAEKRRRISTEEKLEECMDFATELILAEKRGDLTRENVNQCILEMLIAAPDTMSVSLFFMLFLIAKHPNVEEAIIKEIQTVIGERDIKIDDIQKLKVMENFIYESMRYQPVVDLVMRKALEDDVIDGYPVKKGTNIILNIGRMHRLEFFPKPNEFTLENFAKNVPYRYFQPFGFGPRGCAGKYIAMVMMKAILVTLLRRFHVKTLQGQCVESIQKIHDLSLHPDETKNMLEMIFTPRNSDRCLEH
Experimental: as §1

T2 sequence (P08684 whole entry): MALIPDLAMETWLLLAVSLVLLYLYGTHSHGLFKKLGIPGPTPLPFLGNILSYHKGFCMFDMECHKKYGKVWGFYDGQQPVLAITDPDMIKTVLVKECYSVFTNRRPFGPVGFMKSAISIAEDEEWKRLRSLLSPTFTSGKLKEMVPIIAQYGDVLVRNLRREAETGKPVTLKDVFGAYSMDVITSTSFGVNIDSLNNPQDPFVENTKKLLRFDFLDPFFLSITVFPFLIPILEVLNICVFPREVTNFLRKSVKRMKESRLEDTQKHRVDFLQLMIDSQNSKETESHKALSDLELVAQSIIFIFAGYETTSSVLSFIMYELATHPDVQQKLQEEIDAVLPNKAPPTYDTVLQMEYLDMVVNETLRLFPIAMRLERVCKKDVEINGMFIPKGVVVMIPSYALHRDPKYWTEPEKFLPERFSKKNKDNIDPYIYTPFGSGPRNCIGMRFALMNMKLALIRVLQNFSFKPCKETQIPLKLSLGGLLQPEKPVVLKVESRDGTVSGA

## Clc1ccccc1C(c1ccccc1)(c1ccccc1)n1cccn1 [TRAM-34, 1-[(2-chlorophenyl)diphenylmethyl]-1H-pyrazole]
[1]
  pIC50: < 4.10
[1]; up to 80 µM
  Inhibition of CYP1A2h (in words): little to no inhibition; also recorded: no inhibitory effects
[2]
  pIC50: 5.44
[3]; pH 7.4, IC50, formation of 6′-exomethylene LVS by CYP3A4, substrate LVS 10 µM
  IC50 at 20 min: 640 nM
[3]; pH 7.4, IC50, formation of 6′β-hydroxy LVS by CYP3A4, substrate LVS 10 µM
  IC50 at 20 min: 920 nM
[3]; read-out: IC50, formation of 6′-exomethylene LVS by CYP3A4
  pIC50: ~6.00
[3]; read-out: IC50, formation of 6′β-hydroxy LVS by CYP3A4
  pIC50: ~6.00
[4]
  pIC50: < 4.10
[4]; up to 80 µM
  Inhibition of CYP19A1h (in words): little to no inhibition; also recorded: no inhibitory effects
